Data as given in article PMC4413184, “Seco-Taondiol, an Unusual Meroterpenoid from the Chilean Seaweed Stypopodium flabelliforme and Its Gastroprotective Effect in Mouse Model” (Marine Drugs, 2015).
“Also recorded” adds a separate entry of the source. Marks after values point to notes of the source that are not given here.

Assays:
[1] = system: HCl/EtOH-induced gastric lesions in mice; experiment: HCl/EtOH-induced gastric lesions model in mice; type: in vivo; settings: for gastroprotective activity (in words): HCl/EtOH-induced gastric lesions model in mice; for Lesion Index (mm) / % Lesion Reduction / inhibition of the appearance of gastric mucosal lesions: mice; for Lesion Index (mm) / % Lesion Reduction: oral, title: 30 mg/kg, method: meroditerpenoids 40 mg/kg, lansoprazole 30 mg/kg; for Lesion Index (mm): mean ± sd, n = 7; for % Lesion Reduction: versus control; for inhibition of the appearance of gastric mucosal lesions: oral administration at 40 mg/kg
Procedure: The gastroprotective activity of the compounds 4a–5a, and 9, 11 was assessed in the HCl/EtOH-induced lesion model as described previously. Mice were randomly distributed into groups of seven animals each and fasted for 12 h with free access to water prior to the experiment. Fifty min after oral administration of the meroditerpenoids (40 mg/kg), lansoprazole (30 mg/kg) or 1% Tween 80 (10 mL/kg), all groups were orally treated with 0.2 mL of a solution containing 0.3 M HCl/60% ethanol (HCl/EtOH) for gastric lesion induction. Animals were sacrificed 1 h after the administration of HCl/EtOH, and the stomachs were excised and inflated by injection of saline (1 mL). The ulcerated stomachs were fixed in 5% formalin for 30 min and opened along the greater curvature. […] The length (mm) of each lesion was measured, and the lesion index was expressed as the sum of the length of all lesions.

[2] = Cytotoxicity MTT assay, AGS cells; type: cell-based, human; settings: human, AGS cells (human gastric epithelial cells), 48 h incubation
Procedure: (§1) The cytotoxic assay expressed as cell viability was conducted using MTT assay method. Cells at a density of 3 × 10^4 of MRC fibroblasts or AGS cells were plated in 96-well culture dishes. Compounds were assayed at concentrations ranging from 0 up to 500 μM. Incubated at 37 °C in humidified CO2 incubator for 24 h. After incubation, various concentrations in DMSO solvent of the compounds were added. Each compound was tested in quadruplicate and repeated three times. After 48 h incubation, assay was stop by adding MTT reagent (3-(4,5dimethylthiazol-2-yl)-2,5-diphenyltetrazolium bromide) and the incubation continue for next 4 h before the addition of MTT stop solution containing sodium dodecyl sulphate (SDS), the incubation continue for next 24 h. optical density was measured using microplate reader at 550 nm. IC50 value obtained from the plotted graph between percentage live cells compared to control.

[3] = system: human fibroblast (MRC fibroblasts); experiment: Cytotoxicity MTT assay, fibroblasts; type: cell-based; settings: 48 h incubation
Procedure: as §1

[4] = system: HCl/EtOH-induced gastric lesions in indomethacin-pretreated mice; experiment: HCl/EtOH-induced gastric lesions in indomethacin-pretreated mice; type: in vivo; settings: indomethacin 30 mg/kg s.c. 30 min before, 1a 35 mg/kg, 3a 40 mg/kg oral
Procedure: (§2) To investigate the involvement of endogenous prostaglandins in the gastroprotective effect of 1a and 3a, indomethacin s.c. (30 mg/kg, an inhibitor of the prostaglandin synthesis was dissolved in 5% NaHCO3) was injected 30 min before administration of 1a, 3a or vehicle (IND-treated). Fifty min after oral administration of 1a (35 mg/kg), 3a (40 mg/kg) or vehicle, all groups were orally treated with 0.2 mL of a solution containing 0.3 M HCl/60% ethanol (HCl/EtOH) for gastric lesion induction. Animals were sacrificed 1 h after the administration of HCl/EtOH, and the stomachs were excised and inflated by injection of saline (1 mL). The gastric mucosal lesions were induced and the length of gastric lesions was measured as described above.

[5] = system: HCl/EtOH-induced gastric lesions in NEM-pretreated mice; experiment: HCl/EtOH-induced gastric lesions in N-ethylmaleimide (NEM)-pretreated mice; type: in vivo; settings: NEM 10 mg/kg s.c. 30 min before, 1a 35 mg/kg, 3a 40 mg/kg oral
Procedure: as §2, with “sulfhydryl compounds (SHs)” for “endogenous prostaglandins”, “NEM” for “indomethacin”, “(10” for “(30”, “SH blocker” for “inhibitor of the prostaglandin synthesis”, “saline)” for “5% NaHCO3)”, “(NEM-treated).” for “(IND-treated).”

[6] = system: HCl/EtOH-induced gastric lesions in L-NAME-pretreated mice; experiment: HCl/EtOH-induced gastric lesions in L-NAME-pretreated mice; type: in vivo; settings: L-NAME 70 mg/kg i.p. 30 min before, 1a 35 mg/kg, 3a 40 mg/kg oral
Procedure: as §2, with “nitric oxide (NO)” for “prostaglandins”, “L-NAME i.p. (70” for “indomethacin s.c. (30”, “NO synthase” for “the prostaglandin synthesis”, “saline)” for “5% NaHCO3)”, “(L-NAME-treated).” for “(IND-treated).”

[7] = system: HCl/EtOH-induced gastric lesions in RR-pretreated mice; experiment: HCl/EtOH-induced gastric lesions in ruthenium red (RR)-pretreated mice; type: in vivo; settings: RR 3.5 mg/kg s.c. 30 min before; 1a 35 mg/kg, 3a 40 mg/kg oral
Procedure: as §2, with “vanilloid receptor” for “endogenous prostaglandins”, “RR” for “indomethacin”, “(3.5” for “(30”, “a vanilloid receptor antagonist” for “an inhibitor of the prostaglandin synthesis”, “saline)” for “5% NaHCO3)”, “(RR-treated).” for “(IND-treated).”

[8] = system: HCl/EtOH-induced gastric lesions in mice; parameters: method as in PMID 21922901; settings: cited from earlier work
[9] = Cytotoxicity MTT assay, fibroblasts; type: cell-based, human; settings: human, MRC fibroblasts, 48 h incubation
Procedure: as §1

[10] = system: human epithelial gastric cells (AGS); experiment: Cytotoxicity MTT assay, AGS cells; type: cell-based; settings: 48 h incubation
Procedure: as §1

| Compound | gastroprotective activity (in words) [1] | Lesion Index (mm) [1] [mm] | % Lesion Reduction [1] | IC50 at 48 h [2] [µM] | IC50 at 48 h [9] [µM] | other results |
| --- | --- | --- | --- | --- | --- | --- |
| Cc1cc(O)cc2c1OC1(C)CCC3C(C)(CCC4C(C)(C)C(O)CCC43C)C1C2 (stereo not drawn) [Compound 3a, epitaondiol] | exhibited gastroprotective activity | 16.7 ± 3.1 | 60 * % | 29 ± 3 | – | IC50 [3]: 19 ± 4 µM; effect of indomethacin pre-treatment on the gastroprotective effect [4]: attenuated; effect of indomethacin pre-treatment on the gastroprotective effect ([4]; listed as epitaondiol): reversed significantly; effect of NEM pre-treatment on the gastroprotective effect [5]: reduced; effect of NEM pre-treatment on the gastroprotective effect ([5]; listed as epitaondiol): reversed significantly; effect of L-NAME pre-treatment on the gastroprotective effect [6]: reduced; effect of L-NAME pre-treatment on the gastroprotective effect ([6]; listed as epitaondiol): reversed significantly; effect of ruthenium red pre-treatment on the gastroprotective effect [7]: did not reduce; gastroprotective activity ED50 [8]: 40 mg/kg |
| Cc1cc(O)cc2c1OC1(C2)C(C)CCC2C3(C)CCC(O)C(C)(C)C3CCC21C (stereo not drawn) [Compound 4a, stypodiol] | gastroprotective activity in similar way than positive control | 13.0 ± 4.0 | 69 * % | 153 ± 9 | 215 ± 8 | gastroprotective activity (in words) ([1]; listed as stypodiol): exhibited gastroprotective activity; inhibition of the appearance of gastric mucosal lesions [1]: 69% |
| CC(=O)Oc1cc(C)c2c(c1OC(C)=O)CC1(O2)C(C)CCC2C3(C)CCC(OC(C)=O)C(C)(C)C3CCC21C (stereo not drawn) [Compound 9, stypotriol triacetate] | inactive | 36.4 ± 5.2 | 12% | 14 ± 3 | 21 ± 5 | – |
| CC(=O)Oc1c(Cl)c(C)c2c(c1OC(C)=O)CC1(O2)C(C)CCC2C3(C)CCC(OC(C)=O)C(C)(C)C3CCC21C (stereo not drawn) [Compound 8, 4'-chlorostypotriol triacetate] | – | – | – | 11 ± 1 | 12 ± 1 | – |
| CC(=O)Oc1cc(C)c2c(c1OC(C)=O)CC1(O2)C(C)CCC2C3(C)CCC(=O)C(C)(C)C3CCC21C (stereo not drawn) [Compound 11, 14-ketostypodiol diacetate] | inactive | 37.9 ± 7.3 | 9% | 65 ± 4 | 102 ± 6 | – |
| Cc1c(OCC(F)(F)F)ccnc1C[S+]([O-])c1nc2ccccc2[nH]1 (stereo not drawn) [Lansoprazole, lansoprazole, reference compound] | – | 14.1 ± 3.6 | 66 * % | 198 ± 5 | 392 ± 6 | – |
| Cc1cc(O)cc2c1OC1(C)CCC3C(C)(CCC4C(C)(C)C(O)CCC43C)C1C2 (stereo not drawn) [Compound 5a, isoepitaondiol] | gastroprotective activity in similar way than positive control | 9.1 ± 3.6 | 78 * % | – | – | gastroprotective activity (in words) ([1]; listed as isoepitaondiol): exhibited gastroprotective activity; inhibition of the appearance of gastric mucosal lesions [1]: 78%; IC50 [10]: 42 ± 2 µM; IC50 [3]: 65 ± 3 µM |
| CC(C)=CCC/C(C)=C/CC/C(C)=C/CC[C@]1(C)C=Cc2cc(O)cc(C)c2O1 [Compound 1a, sargaol] | exhibited gastroprotective activity | 20.0 ± 3.6 | 52 * % | 18 ± 4 | 12 ± 3 | effect of indomethacin pre-treatment on the gastroprotective effect [4]: reversed significantly; effect of indomethacin pre-treatment on the gastroprotective effect ([4]; listed as sargaol): attenuated; effect of NEM pre-treatment on the gastroprotective effect [5]: reduced; also recorded: reversed significantly; effect of NEM pre-treatment on the gastroprotective effect ([5]; listed as sargaol): attenuated; effect of L-NAME pre-treatment on the gastroprotective effect [6]: has not attenuated; effect of ruthenium red pre-treatment on the gastroprotective effect [7]: did not reduce; gastroprotective activity ED50 [8]: 35 mg/kg |
| COc1c(C)cc(OC(C)=O)cc1CC1C(C)CCC2C3(C)CCC(OC(C)=O)C(C)(C)C3=CCC12C (stereo not drawn) [Compound 7, O,C(3)-seco-9-ene-6β-taondiol diacetate] | – | – | – | 85 ± 5 | 102 ± 6 | – |
